Earlier results on one molecule are cited in US20070287647A1, “Nail Polish Remover” (priority 2006, published 2007).

For the series the following is noted: in vapor.

Turning to `CC#N` [acetonitrile], the inhalation toxicity level result was “about 60 ppm”.
